According to patent US12012411B2, “Viral replication inhibitors” (Katholieke Universiteit Leuven, priority 2011, dated 2024):
Like-named read-outs stand apart in the source and are kept apart here.

Assays:
[1] = test system: uninfected quiescent Vero-B cells; assay: Cytotoxic assay in uninfected quiescent Vero-B cells (MTS/PMS); settings: 4 days (Table 3)
[2] = test system: DENV-4 strain Dak HD 34 460; assay: Antiviral activity against DENV-4 in Vero-B cells (viral RNA load by RT-qPCR); format: cell-based, Dengue virus
[3] = test system: DENV-1 Djibouti strain D1/H/IMTSSA/98/606; assay: Antiviral activity against DENV-1 in Vero-B cells (viral RNA load by RT-qPCR); format: cell-based, Dengue virus
[4] = test system: DENV-3 strain H87 prototype; assay: Antiviral activity against DENV-3 in Vero-B cells (viral RNA load by RT-qPCR); format: cell-based, Dengue virus
[5] = test system: DENV-2 NGC; assay: Antiviral activity against DENV-2 NGC in Vero-B cells (viral RNA load by RT-qPCR); format: cell-based, Dengue virus; settings: DENV-2 in Vero-B cells, inhibition of viral RNA replication by 50% (Table 3)
[6] = test system: DENV-2 NGC; assay: Antiviral activity against DENV-2 NGC in A549 cells (viral RNA load by RT-qPCR); format: cell-based; settings: Dengue virus, DENV2; DENV-2 in A549 cells (Table 6)
[7] = Cytotoxicity in A549 cells (MTS/PMS); format: cell-based; settings: human; A549 cells (Table 6)
Method: A similar protocol was used to assess cytotoxicity in A549 cells with the difference that cells were seeded at 2×10^4 cells/well.

[8] = in vitro; settings: African green monkey, uninfected quiescent Vero-B cells

Row | SMILES | CC50 [1] | EC50 [2] | EC50 [3] | EC50 [4] | EC50 [5] | EC50 ([2]; Dengue virus, DENV4, Vero B) | EC50 ([3]; Dengue virus, DENV1, Vero B) | EC50 ([5]; Dengue virus, DENV2, Vero B) | EC50 ([4]; Dengue virus, DENV3, Vero B) | EC50 [6] | CC50 at 4 days [7] | CC50 at 4 days [8]
1 | COc1cncc(NC(C(=O)c2c[nH]c3ccccc23)c2ccccc2)c1 (single isomer, unassigned) [CPD-300] | 50 µM | 4.13 µM | 5.29 µM | 21.1 µM | 1.29 µM | – | – | – | – | – | – | –
2 | COc1cncc(NC(C(=O)c2c[nH]c3ccc(F)cc23)c2ccc(OC)nc2)c1 (single isomer, unassigned) [CPD-323] | 58 µM | – | 3.62 µM | 4.99 µM | 0.35 µM | – | – | – | – | – | – | –
3 | COc1cccc(NC(C(=O)c2c[nH]c3ccccc23)c2cc3ccccn3n2)c1 (single isomer, unassigned) [CPD-324] | 30 µM | – | 0.27 µM | 0.19 µM | 0.01 µM | 5.32 µM | – | – | – | – | – | –
4 | COc1cccc(NC(C(=O)c2c[nH]c3ccccc23)c2cc3ccccn3n2)c1 (single isomer, unassigned) [CPD-325] | 68 µM | 7.16 µM | 0.87 µM | 1.84 µM | 0.09 µM | – | – | – | – | – | – | –
5 | COc1cc(NC(C(=O)c2c[nH]c3ccccc23)c2ccccc2)cc(OC)c1 (single isomer, unassigned) [CPD-326] | 13 µM | – | 0.05 µM | 0.09 µM | 0.001 µM | 1.89 µM | – | – | – | – | – | –
6 | COc1cc(NC(C(=O)c2c[nH]c3ccccc23)c2ccccc2)cc(OC)c1 (single isomer, unassigned) [CPD-327] | 11 µM | 2.25 µM | 1.42 µM | 4.61 µM | 0.35 µM | – | – | – | – | – | – | –
7 | COc1cccc(NC(C(=O)c2c[nH]c3ccccc23)c2ccncc2)c1 (stereo not shown) [CPD-020] | 16 µM | – | – | – | – | – | 15.1 µM | 0.14 µM | – | – | – | –
8 | COc1cccc(NC(C(=O)c2c[nH]c3ccccc23)c2ccsc2)c1 (stereo not shown) [CPD-027] | 15 µM | – | – | – | – | 3.7 µM | 2.1 µM | 0.13 µM | 9.9 µM | – | – | –
9 | COc1cccc(NC(C(=O)c2c[nH]c3ccccc23)c2ccc(C#N)cc2)c1 (stereo not shown) [CPD-036] | 14 µM | – | – | – | – | 5.85 µM | 2.43 µM | 0.04 µM | 3.42 µM | – | – | –
10 | COc1cccc(NC(C(=O)c2c[nH]c3cccc(Cl)c23)c2ccccc2)c1 (stereo not shown) [CPD-053] | 18 µM | – | – | – | – | 7.11 µM | 1.64 µM | 0.02 µM | 11.2 µM | – | – | –
11 | COc1cncc(NC(C(=O)c2c[nH]c3ccccc23)c2ccccc2)c1 (stereo not shown) [CPD-067] | 20 µM | – | – | – | – | – | < 0.5 µM | 0.04 µM | 1.2 µM | – | – | –
12 | COc1cccc(NC(C(=O)c2c[nH]c3cc(OC)ccc23)c2ccccc2)c1 (stereo not shown) [CPD-077] | 13 µM | – | – | – | – | 4.27 µM | 1.42 µM | 0.04 µM | 2.07 µM | – | – | –
13 | COc1cccc(NC(C(=O)c2c[nH]c3ccccc23)c2cc3ccccn3n2)c1 (stereo not shown) [CPD-083] | 26 µM | – | – | – | – | 2.52 µM | 0.54 µM | 0.03 µM | 0.71 µM | – | – | –
14 | COc1cccc(NC(C(=O)c2c[nH]c3cc(Cl)ccc23)c2ccccc2)c1 (stereo not shown) [CPD-118] | 13 µM | – | – | – | – | – | 0.44 µM | 0.01 µM | 3.68 µM | – | – | –
15 | COc1cccc(NC(C(=O)c2c[nH]c3ccc(F)cc23)c2ccccc2)c1 (stereo not shown) [CPD-119] | 13 µM | – | – | – | – | 2.91 µM | 0.69 µM | 0.03 µM | 1.74 µM | – | – | –
16 | COc1cccc(NC(C(=O)c2c[nH]c3cc(F)ccc23)c2ccccc2)c1 (stereo not shown) [CPD-123] | 15 µM | – | – | – | – | 2.64 µM | 1.6 µM | 0.05 µM | 2.56 µM | – | – | –
17 | COc1cccc(NC(C(=O)c2c[nH]c3ccccc23)c2cccc(C)c2)c1 (stereo not shown) [CPD-138] | 20 µM | – | – | – | – | – | 3.21 µM | 0.27 µM | 6.52 µM | – | – | –
18 | COc1cccc(NC(C(=O)c2c[nH]c3ccccc23)c2ccc(C)cc2)c1 (stereo not shown) [CPD-139] | 20 µM | – | – | – | – | 3.81 µM | 0.65 µM | 0.02 µM | 0.46 µM | – | – | –
19 | COc1cccc(NC(C(=O)c2c[nH]c3ccccc23)c2ccc(F)cc2)c1 (stereo not shown) [CPD-149] | 14 µM | – | – | – | – | 5.72 µM | 2.88 µM | 0.03 µM | 4.01 µM | – | – | –
20 | COc1cccc(NC(C(=O)c2c[nH]c3ccccc23)c2ccc(C)nc2)c1 (stereo not shown) [CPD-226] | 73 µM | – | – | – | – | 8.64 µM | 0.92 µM | 0.07 µM | 0.81 µM | – | – | –
21 | COc1cccc(NC(C(=O)c2c[nH]c3cccc(F)c23)c2ccccc2)c1 (stereo not shown) [CPD-230] | 21 µM | – | – | – | – | 2.56 µM | 0.35 µM | 0.12 µM | 3.53 µM | – | – | –

Row | SMILES | CC50 [1] | EC50 [2] | EC50 [3] | EC50 [4] | EC50 [5] | EC50 ([2]; Dengue virus, DENV4, Vero B) | EC50 ([3]; Dengue virus, DENV1, Vero B) | EC50 ([5]; Dengue virus, DENV2, Vero B) | EC50 ([4]; Dengue virus, DENV3, Vero B) | EC50 [6] | CC50 at 4 days [7] | CC50 at 4 days [8]
22 | COc1cc(NC(C(=O)c2c[nH]c3ccccc23)c2ccc(F)cc2)cc(OC)c1 (stereo not shown) [CPD-235] | 13 µM | – | – | – | – | 3.02 µM | 0.09 µM | 0.004 µM | 0.27 µM | – | – | –
23 | COc1cncc(NC(C(=O)c2c[nH]c3ccccc23)c2ccccc2)n1 (stereo not shown) [CPD-252] | 68 µM | – | – | – | – | 2.29 µM | – | 0.48 µM | 12.6 µM | – | – | –
24 | CCOc1cc(NC(C(=O)c2c[nH]c3ccccc23)c2ccccc2)cc(OC)c1 (stereo not shown) [CPD-254] | 13 µM | – | – | – | – | 1.15 µM | 0.67 µM | 0.02 µM | 0.8 µM | – | – | –
25 | COc1cc(NC(C(=O)c2c[nH]c3ccccc23)c2ccccc2)cc(OCCO)c1 (stereo not shown) [CPD-255] | – | – | – | – | – | 3.36 µM | 0.75 µM | 0.04 µM | 1.66 µM | 0.029 µM | 59 µM | 63 µM
26 | COc1cc(CO)cc(NC(C(=O)c2c[nH]c3ccccc23)c2ccccc2)c1 (stereo not shown) [CPD-262] | 71 µM | – | – | – | – | 8.49 µM | 2.33 µM | 0.06 µM | 6.73 µM | – | – | –
27 | COc1cc(NC(C(=O)c2c[nH]c3ccccc23)c2cc3ccccn3n2)cc(OC)c1 (stereo not shown) [CPD-293] | – | – | – | – | – | 1.15 µM | 0.06 µM | 0.001 µM | 0.04 µM | 0.003 µM | > 117 µM | 65 µM
28 | COc1cc(NC(C(=O)c2c[nH]c3ccccc23)c2cnc(OC)cn2)cc(OC)c1 (stereo not shown) [CPD-294] | – | – | – | – | – | 7.21 µM | 0.23 µM | 0.02 µM | 0.67 µM | 0.015 µM | 61 µM | 41 µM
29 | COc1cc(CO)cc(NC(C(=O)c2c[nH]c3ccccc23)c2ccc(C)nc2)c1 (stereo not shown) [CPD-320] | – | – | – | – | – | 9.44 µM | 0.96 µM | 0.07 µM | 1.17 µM | 0.006 µM | > 124 µM | > 124 µM
30 | COc1cc(CO)cc(NC(C(=O)c2c[nH]c3ccc(F)cc23)c2cccnc2)c1 (stereo not shown) [CPD-334] | – | – | – | – | – | 16.8 µM | 1.29 µM | 0.07 µM | 0.81 µM | 0.024 µM | 85 µM | 122 µM
31 | COc1cc(NC(C(=O)c2c[nH]c3ccccc23)c2cc3ccccn3n2)cc(OCCO)c1 (stereo not shown) [CPD-336] | – | – | – | – | – | 5.77 µM | 0.26 µM | 0.01 µM | 0.35 µM | 0.005 µM | > 123 µM | > 123 µM
32 | COc1cc(NC(C(=O)c2cn(C)c3ccccc23)c2ccccc2)cc(OC)c1 (stereo not shown) [CPD-338] | – | – | – | – | – | 1.82 µM | 0.35 µM | 0.01 µM | 0.25 µM | 0.026 µM | > 124 µM | > 124 µM
33 | COc1cc(NC(C(=O)c2nn(C)c3ccccc23)c2ccc(F)cc2)cc(OC)c1 (stereo not shown) [CPD-340] | – | – | – | – | – | 6.39 µM | 0.18 µM | 0.02 µM | 0.24 µM | 0.027 µM | > 119 µM | > 119 µM
34 | COc1cc(NC(C(=O)c2c[nH]c3ccccc23)c2ccc(C)nc2)cc(OC)c1 (stereo not shown) [CPD-346] | – | – | – | – | – | 1.27 µM | – | 0.01 µM | 0.04 µM | 0.008 µM | 60 µM | 54 µM
35 | COc1cccc(NC(C(=O)c2c[nH]c3ccccc23)c2ccccc2C)c1 (stereo not shown) [CPD-348] | 14 µM | – | – | – | – | 3.75 µM | – | 0.1 µM | – | – | – | –
36 | COc1cc(NC(C(=O)c2c[nH]c3ccccc23)c2ccc(F)cc2)cc(OCCO)c1 (stereo not shown) [CPD-350] | 46 µM | – | – | – | – | 3.11 µM | – | 0.01 µM | 0.28 µM | 0.008 µM | 63 µM | –
37 | COc1cc(NC(C(=O)c2c[nH]c3ccc(CO)cc23)c2ccccc2)cc(OC)c1 (stereo not shown) [CPD-351] | 65 µM | – | – | – | – | 9.58 µM | – | 0.11 µM | 2.02 µM | – | – | –
38 | COc1cc(NC(C(=O)c2c[nH]c3cccc(CO)c23)c2ccccc2)cc(OC)c1 (stereo not shown) [CPD-352] | 71 µM | – | – | – | – | 8.6 µM | – | 0.29 µM | 3.03 µM | – | – | –
39 | COc1cc(NC(C(=O)c2c[nH]c3ccc(CCCO)cc23)c2ccccc2)cc(OC)c1 (stereo not shown) [CPD-353] | 56 µM | – | – | – | – | 7.18 µM | – | 0.1 µM | 0.17 µM | – | – | –
40 | COc1cc(NC(C(=O)c2cn(C)c3ccccc23)c2cccnc2)cc(OC)c1 (stereo not shown) [CPD-360] | – | – | – | – | – | 5.78 µM | – | 0.04 µM | – | 0.027 µM | > 124 µM | > 124 µM
41 | COc1cc(NC(C(=O)c2c[nH]c3ccccc23)c2ccccc2)cc(OCCCO)c1 (stereo not shown) [CPD-361] | 50 µM | – | – | – | – | – | – | 0.09 µM | – | – | – | –
